{
  "source": "patent US20250040554A1",
  "about": "“NEW USES OF PHENMEDIPHAM AND HERBICIDAL COMBINATIONS COMPRISING PHENMEDIPHAM” (BAYER AKTIENGESELLSCHAFT, priority 2021, published 2025)",
  "type_in_all_cases": "in vivo",
  "key": {"[1]": {"test_system": "non-traited soybean (Glycine max, GLXMA)", "assay": "Field selectivity trial soybean", "conditions": "35 DAA", "from_the_text": "(§1) The respective (combinations of) materials were applied to weed plants in the greenhouse or in the field at the respective growth stage indicated hereinafter for the different weed species mentioned below. The respective (combinations of) active ingredients were also applied to corn, cotton and soybean crop plants, and the selectivity (damage) in these crop plants rated (assessed).\n(§2) Visual scoring of the damage to the trial plants took place after the time mentioned in the respective Table—indicated in number of Days After Application (DAA). Damage and development of all above-ground parts of the respective plants was recorded. Visual rating was done on a percentage scale in relation to the untreated control (100%=all plants dead; 50%=green plant biomass reduced by 50%, and 0%=no discernible difference=like control plot).\n(§3) The trials in the greenhouse were sprayed with an application volume of 300 L/ha with an automated track sprayer. The plots in the field were sprayed with an application volume of 140 L/ha with a hand held spray boom.\nPhenmedipham and combinations of phenmedipham and mesotrione were applied at varying application rates (Dose Rate) to the crop plants of non-traited soybean (Glycine max, GLXMA) and corn (Zea mays, ZEAMX). The results are shown in Table 5 as the % damage when assessed 35 days after application (DAA), respectively.\nIn all the selectivity trials of Table 5 the adjuvant Mero® (rapeseed oil methyl ester) was added to the respective spray mixture in an amount corresponding to 1 L/ha for PMP, 1 L/ha for MST, and 2 L/ha for mixtures of PMP+MST.\nThe herbicidal effects observed for the herbicide(s) are indicated in % activity against the respective weed. The % damage (injury) indicated refers to the maximum damage observed."}, "STEME=Stellaria media": {"test_system": "STEME=Stellaria media", "assay": "Greenhouse weed control trial STEME", "conditions": "25 DAA", "from_the_text": "as §1, §2, §3\nIn greenhouse selectivity trials and trials herbicidal activity trials against weed plants were investigated in post-emergence application of the respective material(s).\nHerbicidal activity against different weeds (undesired plants) was calculated as follows.\n(§4) wherein • A, B=respective value in percent of active ingredient A at a dose rate of a g/ha, ingredient B at a dose rate of b g/ha • E^C=Expected value according to Colby (S. R. Colby; Weeds 15 (1967), 20-22) in % at a dose rate of a+b, each in g/ha • Δ=Difference (in %) between measured value E and expected value E^C (%) (measured value minus expected value)\n• measured value E is greater than E^C:->synergism (+Δ) • measured value E is equal to E^C:->additive effect • measured value E is smaller than E^C:->antagonism (−Δ)\nThe weed control activity of different (combinations of) materials was investigated in greenhouse trials for the following weed species: • STEME=Stellaria media • ECHCG=Echinochloa crus-galli • BROTE=Bromus tectorum\nPhenmedipham amd Mesotrione were applied at varying application rates (Dose Rate) to the weed plant species STEME, ECHCG and BROTE. The results are shown in Tables 2a to 2c as the % control when assessed 25 days after application (25 DAA).\nIn all the trials of Table Tables 2a to 2c Mero® (rapeseed oil methyl ester) was added to the respective spray mixture in an amount corresponding to 1 L/ha for PMP, 1 L/ha for MST, and 2 L/ha for mixtures of PMP+MST."}, "PANRA=Panicum ramosum": {"test_system": "PANRA=Panicum ramosum", "assay": "Weed control field trial PANRA", "conditions": "15 DAA", "from_the_text": "as §1, §2, §4\nAfter the harmful plants had emerged, they were treated, at the respective growth stage indicated, with the respective materials as indicated at a water application rate of 187 L/ha.\nAfter the treatment (15 days after the treatment), the herbicidal activity of respective material was scored visually at the same time by comparing the differently treated plots with the untreated control plots. The score figures of the different plots were averaged.\n(§5) The dose rates of herbicidal ingredients used in each case are indicated for the respective active ingredient and refer to the amount of active ingredient per hectare (g/ha).\nThe weed control activity of different (combinations of) herbicidal active ingredients was investigated in field trials for the following weed species: • AMARE=Amaranthus retroflexus • KCHSC=Kochia scoparia • PANRA=Panicum ramosum\nThe growth stage of AMARE was BBCH 19, the growth stage of KCHSC was BBCH 19 and the growth stage of PANRA was BBCH 22 at the time of application of the respective material.\nPhenmedipham and the respective aroylcyclohexanedione herbicide were applied at varying application rates (Dose Rate) to the different species of weed plants. The results are shown in Tables 4a to 4d as the % control when assessed 15 days after application (DAA), respectively.\nIn all the trials of Tables 4a to 4d Mero® (rapeseed oil methyl ester) was added to the respective spray mixture in an amount corresponding to 1 L/ha for PMP, 1 L/ha for the respective aroylcyclohexanedione herbicide, and 2 L/ha for mixtures of PMP+the respective aroylcyclohexanedione herbicide."}, "[2]": {"test_system": "IPOAO=Ipomoea aristolochiaefolia", "assay": "Weed control field trial IPOAO", "from_the_text": "as §1, §2, §3, §4\nThe growth stages of the different weed species are indicated according to the BBCH monograph “Growth stages of mono- and dicotyledonous plants”, 2nd edition, 2001, ed. Uwe Meier, Federal Biological Research Centre for Agriculture and Forestry (Biologische Bundesanstalt für Land und Forstwirtschaft).\nAfter the harmful plants had emerged, they were treated, at the respective growth stage indicated, with the respective materials as indicated at a water application rate of 140 L/ha.\nAfter the treatment (21 or 35 days after application of the respective material), the herbicidal activity of respective material was scored visually at the same time by comparing the differently treated plots with the untreated control plots. The score figures of the different plots were averaged.\nas §5\nThe weed control activity of different (combinations of) herbicidal active ingredients was investigated in field trials for the following weed species: • AMAVI=Amaranthus viridis • IPOAO=Ipomoea aristolochiaefolia • EPHHL=Euphorbia heterophylla • BIDPI=Bidens pilosa • BRADC=Brachiaria decumbens • ELEIN=Eleusine indica • CCHEC=Cenchrus echinatus\nThe growth stage of AMAVI was BBCH 13, the growth stage of IPOAO was BBCH 15, the growth stage of EPHHL was BBCH 13, the growth stage of BIDPI was BBCH 14, the growth stage of BRADC was BBCH 23, the growth stage of ELEIN was BBCH 11 and the growth stage of CCHEC was BBCH 12 at the time of application of the respective material.\nPhenmedipham and Mesotrione were applied at varying application rates (Dose Rate) to the different species of weed plants. The results are shown in Tables 3a to 3e as the % control when assessed 21 and 35 days after application (DAA), respectively.\nIn all the trials of Tables 3a to 3e Mero® (rapeseed oil methyl ester) was added to the respective spray mixture in an amount corresponding to 1 L/ha for PMP, 1 L/ha for MST, and 2 L/ha for mixtures of PMP+MST."}},
  "data": [
    {"compound": "COC(=O)Nc1cccc(OC(=O)Nc2cccc(C)c2)c1", "note": "[PMP, 3-[(methoxyformyl)amino]phenyl (3-methylphenyl)carbamate]", "values": [
      {"measurement": "maximum damage GLXMA", "setting": "[1]; 75 g/ha", "result": 10, "unit": "%"},
      {"measurement": "maximum damage GLXMA", "setting": "[1]; 125 g/ha", "result": 15, "unit": "%"},
      {"measurement": "maximum damage GLXMA", "setting": "[1]; 250 g/ha", "result": 14, "unit": "%"},
      {"measurement": "% control STEME", "setting": "STEME=Stellaria media; 12.5 g/ha", "result": 0, "unit": "%"},
      {"measurement": "% control STEME", "setting": "STEME=Stellaria media; 25 g/ha", "result": 0, "unit": "%"},
      {"measurement": "% control STEME", "setting": "STEME=Stellaria media; 50 g/ha", "result": 0, "unit": "%"},
      {"measurement": "% control STEME", "setting": "STEME=Stellaria media; 75 g/ha", "result": 0, "unit": "%"},
      {"measurement": "% control STEME", "setting": "STEME=Stellaria media; 100 g/ha", "result": 0, "unit": "%"},
      {"measurement": "% control STEME", "setting": "STEME=Stellaria media; 125 g/ha", "result": 25, "unit": "%"},
      {"measurement": "% control STEME", "setting": "STEME=Stellaria media; 300 g/ha", "result": 77, "unit": "%"},
      {"measurement": "% control PANRA", "setting": "PANRA=Panicum ramosum; 150 g/ha", "result": 0, "unit": "%"},
      {"measurement": "% control PANRA", "setting": "PANRA=Panicum ramosum; 300 g/ha", "result": 5, "unit": "%"},
      {"measurement": "% control IPOAO", "setting": "[2]; 75 g/ha, 21 DAA", "result": 0, "unit": "%"},
      {"measurement": "% control IPOAO", "setting": "[2]; 75 g/ha, 35 DAA", "result": 0, "unit": "%"},
      {"measurement": "% control IPOAO", "setting": "[2]; 100 g/ha, 21 DAA", "result": 0, "unit": "%"},
      {"measurement": "% control IPOAO", "setting": "[2]; 100 g/ha, 35 DAA", "result": 0, "unit": "%"},
      {"measurement": "% control IPOAO", "setting": "[2]; 125 g/ha, 21 DAA", "result": 0, "unit": "%"},
      {"measurement": "% control IPOAO", "setting": "[2]; 125 g/ha, 35 DAA", "result": 0, "unit": "%"},
      {"measurement": "% control IPOAO", "setting": "[2]; 250 g/ha, 21 DAA", "result": 0, "unit": "%"},
      {"measurement": "% control IPOAO", "setting": "[2]; 250 g/ha, 35 DAA", "result": 0, "unit": "%"}
    ]},
    {"compound": "CS(=O)(=O)c1ccc(C(=O)C2C(=O)CCCC2=O)c([N+](=O)[O-])c1", "note": "[MST, 2-[4-(methylsulfonyl)-2-nitrobenzoyl]cyclohexane-1,3-dione]", "values": [
      {"measurement": "maximum damage GLXMA", "setting": "[1]; 25 g/ha", "result": 12, "unit": "%"},
      {"measurement": "maximum damage GLXMA", "setting": "[1]; 50 g/ha", "result": 29, "unit": "%"},
      {"measurement": "% control STEME", "setting": "STEME=Stellaria media; 12.5 g/ha", "result": 89, "unit": "%"},
      {"measurement": "% control STEME", "setting": "STEME=Stellaria media; 25 g/ha", "result": 99, "unit": "%"},
      {"measurement": "% control STEME", "setting": "STEME=Stellaria media; 50 g/ha", "result": 99, "unit": "%"},
      {"measurement": "% control STEME", "setting": "STEME=Stellaria media; 75 g/ha", "result": 99, "unit": "%"},
      {"measurement": "% control PANRA", "setting": "PANRA=Panicum ramosum; 20 g/ha", "result": 15, "unit": "%"},
      {"measurement": "% control IPOAO", "setting": "[2]; 25 g/ha, 21 DAA", "result": 0, "unit": "%"},
      {"measurement": "% control IPOAO", "setting": "[2]; 25 g/ha, 35 DAA", "result": 0, "unit": "%"},
      {"measurement": "% control IPOAO", "setting": "[2]; 50 g/ha, 21 DAA", "result": 17, "unit": "%"},
      {"measurement": "% control IPOAO", "setting": "[2]; 50 g/ha, 35 DAA", "result": 0, "unit": "%"}
    ]}
  ]
}
